# Assay results reported in patent publication US20240299553A1, “INDOCARBOCYANINE LIPID DERIVATIVES FOR IN VIVO CARGO DELIVERY” (priority 2021, published 2024).
# Key:
# [1] = test system: 4T1 syngeneic orthotopic breast carcinoma; test: Confocal microscopy of 4T1 tumor slices after i.v. injection of dual-labeled liposomes; assay type: in vivo, mice; conditions: for extravasation and migration area in tumor: 24 h after i.v., 290 nm EPC/DSPE-PEG2000 liposomes with 0.2% DiD and Cy3-DSPE
# Protocol: Lipids at the following molar ratios: HSPC/Chol/DSPE-PEG2000 (57/38/5) or EPC/DSPE-PEG2000 (95:5) with addition of 0.2% ICL and/or 0.2% FPL were mixed and dried under a nitrogen stream. The dry lipid cake was resuspended in PBS for a total lipid concentration of 20 mM, then incubated at 60° C. for 30 minutes. The solution was then vortexed for 2 minutes and bath sonicated. Liposomes were extruded by a syringe extruder (Avestin, Ottawa, Canada) through Whatman Nucleopore Track-Etch Membranes (200 nm pore size, 15 times). HSPC-based liposomes were extruded at 60° C., EPC-based liposomes were extruded at room temperature. Size and zeta potential were measured at room temperature in the presence of 1% phosphate-buffered saline using Zetasizer Nano (Malvern, UK). Liposomes were stored at 4° C. at a final concentration of 10 mM (total lipid) for a maximum period of 8 weeks before use.
# 4T1 cell line was purchased from the ATCC and verified using a sequencing core. GL261 cells were obtained from the National Cancer Institute (NCI), and CT2A cells were a gift from Dr. Tom Seyfried (Boston College). LY2 cells were from Dr. Sana Karam, University of Colorado Anschutz Medical campus. Cells were grown at 37° C. in RPMI 1640 medium containing 10% heat-inactivated fetal bovine serum, 10 mM HEPES, 100 U/ml penicillin, and […] streptomycin (all from Corning Inc. New York, NY, USA). BALB/c mice were bred in-house. Mice of 8-10 weeks of age (females) were implanted with 0.5×10^6 cells into the mammary fat pad (4T1) or subcutaneously in the jaw region (LY2) and used for experiments 1 week later when tumors reached ˜200-300 mm^3. For brain tumors, C57BL/6 mice (6-8 weeks old) were implanted with a total 1×10^5 GL261 or CT-2A cells per animal using an established protocol. To determine the distribution of liposomes in tumors and organs, liposomes were injected with 50 μl of 10 mM total lipid intravenously. Blood was collected via periorbital plexus using heparin glass capillaries, and the plasma was separated by centrifugation at 500 g for 5 min. In some experiments, mice were preinjected before dissection with 50 μl of FITC-tomato lectin (1 mg/ml) and 50 μl Hoechst 33324 (2 mg/ml) to visualize the vasculature and the nuclei. Mice were sacrificed with carbon dioxide, followed by cardiac perfusion with PBS through the left ventricle.
# Nikon Eclipse AR1HD inverted confocal microscope with 405 nm, 488 nm, 561 nm, and 640 nm excitation lasers and corresponding emission filters was used. For high magnification imaging, liposomes were diluted 1:200 in PBS, mixed with glycerol at 1:1 ratio and 2 μl were placed on slide. For liposomes in plasma, the samples were diluted 1:20 and mixed with glycerol. The preparations in glycerol were spread under a coverslip and imaged under Apo60 or Apo100 Oil objective at 2048×2048 resolution. For tumor imaging, tumors or whole brains were frozen on dry ice and sliced with a blade into 1-2 mm thick slices. The slices were placed on a glass slide and imaged using Plan Apo 10 objective. Channels' voltage and laser intensity were adjusted using the dual labeled liposomes placed on a slide and imaged under the same magnification. These parameters were calibrated before each imaging session using the batch of liposomes used in that experiment. For quantification, multiple random image areas from different slices of the tumor (both periphery and center) were acquired at 512×512 resolution. Images were quantified with Fiji using customized macros. Briefly, 8-bit gray image stacks were thresholded for fluorescence in the Cy3 and Cy5 channels and the percentages of binary (positive) areas were calculated using the “Measure” function. All the data were plotted with Prism version 8.3.0 (GraphPad, San Diego, CA).
# human glioma cell lines = conditions: cited from earlier work
# LY2 head and neck cancer = test: Confocal microscopy of LY2 tumors after injection of dual-labeled liposomes; assay type: in vivo, mice; conditions: 24 h; DiI/Cy5-DSPE labeled EPC/DSPE-PEG2000 liposomes
# Protocol: (§1) 4T1 cell line was purchased from the ATCC and verified using a sequencing core. GL261 cells were obtained from the National Cancer Institute (NCI), and CT2A cells were a gift from Dr. Tom Seyfried (Boston College). LY2 cells were from Dr. Sana Karam, University of Colorado Anschutz Medical campus. Cells were grown at 37° C. in RPMI 1640 medium containing 10% heat-inactivated fetal bovine serum, 10 mM HEPES, 100 U/ml penicillin, and […] streptomycin (all from Corning Inc. New York, NY, USA). BALB/c mice were bred in-house. Mice of 8-10 weeks of age (females) were implanted with 0.5×10^6 cells into the mammary fat pad (4T1) or subcutaneously in the jaw region (LY2) and used for experiments 1 week later when tumors reached ˜200-300 mm^3. […]
# (§2) Nikon Eclipse AR1HD inverted confocal microscope with 405 nm, 488 nm, 561 nm, and 640 nm excitation lasers and corresponding emission filters was used. […] For quantification, multiple random image areas from different slices of the tumor (both periphery and center) were acquired at 512×512 resolution. Images were quantified with Fiji using customized macros. Briefly, 8-bit gray image stacks were thresholded for fluorescence in the Cy3 and Cy5 channels and the percentages of binary (positive) areas were calculated using the “Measure” function. […]
# [2] = Plasma fluorescence elimination profile after liposome injection; assay type: in vivo, mice; conditions: 24 h post-injection; DiI/Cy5-DSPE liposomes
# Protocol: as §1, with “mm^3. For brain tumors, C57BL/6 mice (6-8 weeks old) were implanted with a total 1×10^5 GL261 or CT-2A cells per animal using an established protocol.” for “mm^3.”
# Tumors and livers were placed in a 24-well plate and scanned as described above. […] Mean fluorescence was determined from 8-bit TIFF images using Fiji software by drawing a region of interest around the tumors and using the “Measure” function to determine mean gray values. […] For plasma fluorescence profile, plasma collected at different time points was serially diluted, dotted on a nitrocellulose membrane, scanned as above, and the mean fluorescence of dots was plotted versus time with Prism.
# [3] = test system: syngeneic intracranial GL261 glioma; test: Confocal microscopy of brain slices of GL261 glioma mice after i.v. dual-labeled liposomes; assay type: in vivo; conditions: 48 h post-injection, EPC/DSPE-PEG2000 liposomes, 0.2% DiI and 0.2% Cy5-DSPE
# Protocol: as §1, §2
# [4] = Ex vivo fluorescence imaging of excised tumors and livers; assay type: in vivo, mice
# Protocol: Tumors and livers were placed in a 24-well plate and scanned as described above. To match the intensity of the channels, the same liposomes used for injection were diluted (1:10), dotted on a 0.45 μm nitrocellulose membrane, and scanned together with the samples. Mean fluorescence was determined from 8-bit TIFF images using Fiji software by drawing a region of interest around the tumors and using the “Measure” function to determine mean gray values. Such measurement is independent of the organ cross-section area. The mean gray values of non-injected tumors were subtracted from the measurements. For plasma fluorescence profile, plasma collected at different time points was serially diluted, dotted on a nitrocellulose membrane, scanned as above, and the mean fluorescence of dots was plotted versus time with Prism.
# [5] = Skin extravasation and accumulation of liposomal lipid dyes; assay type: in vivo, Mouse
# Protocol: FIG. 40B: Liposomes were formulated with Cy3-DSPE, LR-DOPE or DiI. FIG. 40C: Mouse skin was excised 4 days after injection and the microscopic areas of accumulation and extravasation were counted. […] FIG. 40D-40F: circulation and skin accumulation of DiD and Cy5-DSPE liposomes (n=3 per group, 9 different skin areas pooled). FIG. 40G-40H: mixed DiI/Cy5-DSPE liposomes colocalize in skin blood vessels at 1 h, and colocalize in plasma (1000× magnification zoomed). Arrows in FIG. 40G point to DiI extravasation. […] Similar results were observed when mixed Cy3-DSPE/DiD liposomes were used (lower panel).
# [6] = Lipid extraction of tumors and organs, dye biodistribution; assay type: in vivo, mice; conditions: 48 h post-injection
# Protocol: For extraction using a modified Bligh-Dyer method, 50-100 mg tissue was homogenized as described above, 10 parts of chloroform/methanol (2:1) were added to the homogenate (considering that tissue weight is 1 part), and the samples were mixed at 1400 rpm for 2 h at room temperature on Eppendorf Thermomixer. The tubes were centrifuged at 500 g for 10 min. The organic phase (bottom, approximately 80% of the added amount) was carefully collected, dotted on a PVDF membrane and scanned for DiI and Cy5 fluorescence as described above. Different dilutions of liposomes (standard curve) were scanned together with the samples. The percentage of the injected DiI and Cy5 in the extract was calculated from the standard curve and divided by tissue weight. The fluorescence of control non-injected organs was subtracted from that of injected organs. For TLC analysis, the mobile phase consisted of chloroform: methanol (9:1) with 1% trifluoroacetic acid and the samples were run on TLC Silica Gel 60 F254 plates (EMD Millipore).
# MOLM13 leukemic cells = test: MTT cytotoxicity assay in MOLM13 leukemic cells; assay type: cell-based; conditions: Homo sapiens, MOLM-13, 48 h
compound,measurement,setting,value
CCCCCCCCCCCCCCCCCCN1C(=CC=CC=CC2=[N+](CCCCCCCCCCCCCCCCCC)c3ccccc3C2(C)C)C(C)(C)c2ccccc21.O=S(=O)([O-])c1ccc(Cl)cc1 [DiD],extravasation and migration area in tumor,[1]; p-value<0.0001,extravasated and migrated over a significantly larger area than Cy3-DSPE
CC(=O)O[C@H]1C(=O)[C@@]2(C)[C@H]([C@H](OC(=O)c3ccccc3)[C@]3(O)C[C@H](OC(=O)[C@H](O)[C@@H](NC(=O)c4ccccc4)c4ccccc4)C(C)=C1C3(C)C)[C@]1(OC(C)=O)CO[C@@H]1C[C@@H]2O [paclitaxel],toxicity to glioma cells (IC50),human glioma cell lines,nanomolar range
CCCCCCCCCCCCCCCCCC(=O)OC[C@H](COP(=O)(O)OCCNC(=O)CCCCCN1/C(=C/C=C/C2=[N+](C)c3ccccc3C2(C)C)C(C)(C)c2ccccc21)OC(=O)CCCCCCCCCCCCCCCCC.O=C[O-] [Cy3-DSPE],extravasation and migration area in tumor,[1]; p-value<0.0001,mostly stayed in blood vessels
CCCCCCCCCCCCCCCCCCN1C(=CC=CC2=[N+](CCCCCCCCCCCCCCCCCC)c3ccccc3C2(C)C)C(C)(C)c2ccccc21.[O-][Cl+3]([O-])([O-])[O-] [DiI],extravasation in tumor,LY2 head and neck cancer,much better extravasation
same,dye cleared from the circulation,[2],approximately 80%
same,fluorescence positive area in tumor images,"[1]; 4 h, 24 h and 48 h post-injection, EPC/DSPE-PEG2000 DiI/Cy5-DSPE liposomes, p-value<0.0001",significantly larger area than Cy5-DSPE
same,extravasation and spreading in tumor,"[1]; 24 h, 150 nm HSPC/Chol/DSPE-PEG2000 liposomes (DOXIL formula), 0.2% DiI and Cy5-DSPE",more efficient extravasation and spreading
same,extravasation and distribution in tumor,"[1]; 24 h post-injection, EPC/DSPE-PEG2000 liposomes, 0.2 mole % DiI and Cy5-DSPE, i.v.",efficiently extravasated and migrated throughout the tumor
same,accumulation and spreading in glioma,[3],accumulated and spread in tumors much more efficiently than Cy5-DSPE
same,fluorescence in liver images over time,"[4]; livers, later time points versus 1 h",increase
same,fluorescence in tumor images over time,"[4]; tumors, 1 h, 24 h, 48 h post-injection",continued to increase at 24 h and 48 h
same,extravasation and accumulation in skin cells,"[5]; mixed DiI/Cy5-DSPE liposomes, 4 days later",only DiI extravasated and accumulated in skin cells
same,skin extravasation,"[5]; skin excised 4 days after injection, liposomes with Cy3-DSPE, LR-DOPE or DiI",more efficient extravasation than phospholipid dyes
same,tissues with the highest dye amount,[6],highest in the tumor and liver
same,dye amount in tumor and organ extracts over time,"[6]; tumors, livers, spleens, kidneys, 1 h, 24 h",increase in all organs except the kidney over 48 h
Nc1ccn([C@@H]2O[C@H](CO)[C@@H](O)[C@@H]2O)c(=O)n1 [cytarabine],EC50,MOLM13 leukemic cells,65 nM
COc1cccc2c1C(=O)c1c(O)c3c(c(O)c1C2=O)C[C@@](O)(C(=O)CO)C[C@@H]3O[C@H]1C[C@H](N)[C@H](O)[C@H](C)O1 [doxorubicin],toxicity to glioma cells (IC50),human glioma cell lines,nanomolar range
